{"source": "patent US11576905B2", "about": "“Topical semisolid composition containing an antimicrobial agent and pirfenidone for the treatment of chronic skin damage” (Excalibur Pharmaceuticals, Inc., priority 2017, dated 2023)", "key": {"TGFβ1": {"test_system": "TGFβ1", "assay": "TGFβ1 gene expression in ulcer tissue biopsies of treated patients", "format": "in vivo, human", "settings": "first month of treatment"}, "COL1α": {"test_system": "COL1α", "assay": "COL1α gene expression in ulcer tissue biopsies of treated patients", "format": "in vivo, human", "settings": "first month of treatment"}}}
{"compound": "O=C(c1ccc(F)cc1)C1CCN(CCn2c(=O)[nH]c3ccccc3c2=O)CC1", "note": "[KTS, Ketanserin]", "values": [{"measurement": "Patients showing an increase in TGFβ1 gene expression", "setting": "TGFβ1", "result": 29, "unit": "%"}, {"measurement": "Patients showing an increase in COL1α expression", "setting": "COL1α", "result": 43, "unit": "%"}]}
